Results taken from US11021444B2, “Antiviral compounds” (priority 2013, dated 2021).
Like-named read-outs stand apart in the source and are kept apart here.

Assays:
[1] = system: Respiratory Syncytial Virus (RSV) long strain; experiment: microbe, parasite or virus in culture; type: cell-based; conditions: human respiratory syncytial virus, Tables A and B list compounds by EC50 band
Experimental: (§1) CPE reduction assays are performed as described by Sidwell and Huffman et al., Appl. Microbiol. (1971) 22(5):797-801 with slight modifications. HEp-2 cells (ATCC #, CCL-23) are seeded at a density of 1,500 cells/30 μl/well into the 384-well cell plate(s) (Corning #3701) one day prior to the assay. Compounds are added into 384-well cell plates by Labcyte POD 810 Plate Assembler system. Each of the test compounds is provided to duplicate wells of a 384-well cell plate at final concentrations starting from 100 μM or 1 μM using 1/3 stepwise dilutions for 9 points. Quick-thaw Respiratory Syncytial Virus (RSV) long strain (ATCC #VR-26) stock in a 37° C. water bath. Place on ice until ready to use. Viruses are diluted to the concentration of 100 TCID50/30 μL with medium and 30 μl diluted RSV are added into related wells of 384-well cell plates. For each plate, sixteen wells are set aside as uninfected, untreated cell controls (CC), and nine wells per test plate receive virus only as a control for virus replication (VC). The final DMSO concentration of all wells is 1%. Place the plates at 37° C., 5% CO2 for 5 days.
After 5 days incubation, observe the CPE of cells in all wells. […] Six μl of cell counting kit-8 reagent (CCK-8, Dojindo Molecular Technologies Inc., CK04-20) are added to each well, which allows colorimetric assays to determine the number of viable cells through the dehydrogenase activity detection. After 3-4 hour incubation, the absorbance of each well is measured with a spectrophotometric plate reader at 450 nm wavelength, using a 630 nm filter as background according to manufacturer's instruction.

[2] = target: recombinant RSV complex (Human respiratory syncytial virus A, UniProt P28887); experiment: RSV Polymerase Inhibition Assay; type: biochemical
Experimental: Standard RSV polymerase assays were conducted in the presence of 10 nM recombinant RSV complex in a reaction buffer containing Tris-HCl pH7.5, 6 mM MgCl2, and other additives and substrates including RNA oligonucleotides and radionucleotides. Standard reactions were incubated in 96-well plate format for 2 h at 30° C., in the presence of increasing concentration of inhibitor. The reaction was stopped with 90 μL of 0.1M EDTA, and the reaction product was transferred to a “reading” 96-well plate. After washing of the plate, radiolabeled RNA products were detected according to standard procedures with a Trilux Topcount scintillation counter.

[3] = Cytotoxicity Determination (CCK-8, without addition of virus); type: cell-based; conditions: human, 50% cytotoxicity concentration (CC50)
Experimental: as §1
In order to determine the compound cytotoxicity, in parallel, each of the compounds is applied to duplicate wells in a 384-well cell plate at serial final concentrations starting from 100 μM using 1/2 stepwise dilutions for 7 points without addition of virus. Incubate the cells at 37° C., 5% CO2 for 5 days. Add 6 μL CCK-8 into each well and incubate in a CO2 incubator at 37° C. for 3-4 hours.

[4] = HEp-2, 120 h, read-out: 50% effective concentration (EC50), HEp-2 cells infected with RSV long strain, 5 days, CCK-8 readout

recombinant RSV complex, sequence (P28887 whole entry): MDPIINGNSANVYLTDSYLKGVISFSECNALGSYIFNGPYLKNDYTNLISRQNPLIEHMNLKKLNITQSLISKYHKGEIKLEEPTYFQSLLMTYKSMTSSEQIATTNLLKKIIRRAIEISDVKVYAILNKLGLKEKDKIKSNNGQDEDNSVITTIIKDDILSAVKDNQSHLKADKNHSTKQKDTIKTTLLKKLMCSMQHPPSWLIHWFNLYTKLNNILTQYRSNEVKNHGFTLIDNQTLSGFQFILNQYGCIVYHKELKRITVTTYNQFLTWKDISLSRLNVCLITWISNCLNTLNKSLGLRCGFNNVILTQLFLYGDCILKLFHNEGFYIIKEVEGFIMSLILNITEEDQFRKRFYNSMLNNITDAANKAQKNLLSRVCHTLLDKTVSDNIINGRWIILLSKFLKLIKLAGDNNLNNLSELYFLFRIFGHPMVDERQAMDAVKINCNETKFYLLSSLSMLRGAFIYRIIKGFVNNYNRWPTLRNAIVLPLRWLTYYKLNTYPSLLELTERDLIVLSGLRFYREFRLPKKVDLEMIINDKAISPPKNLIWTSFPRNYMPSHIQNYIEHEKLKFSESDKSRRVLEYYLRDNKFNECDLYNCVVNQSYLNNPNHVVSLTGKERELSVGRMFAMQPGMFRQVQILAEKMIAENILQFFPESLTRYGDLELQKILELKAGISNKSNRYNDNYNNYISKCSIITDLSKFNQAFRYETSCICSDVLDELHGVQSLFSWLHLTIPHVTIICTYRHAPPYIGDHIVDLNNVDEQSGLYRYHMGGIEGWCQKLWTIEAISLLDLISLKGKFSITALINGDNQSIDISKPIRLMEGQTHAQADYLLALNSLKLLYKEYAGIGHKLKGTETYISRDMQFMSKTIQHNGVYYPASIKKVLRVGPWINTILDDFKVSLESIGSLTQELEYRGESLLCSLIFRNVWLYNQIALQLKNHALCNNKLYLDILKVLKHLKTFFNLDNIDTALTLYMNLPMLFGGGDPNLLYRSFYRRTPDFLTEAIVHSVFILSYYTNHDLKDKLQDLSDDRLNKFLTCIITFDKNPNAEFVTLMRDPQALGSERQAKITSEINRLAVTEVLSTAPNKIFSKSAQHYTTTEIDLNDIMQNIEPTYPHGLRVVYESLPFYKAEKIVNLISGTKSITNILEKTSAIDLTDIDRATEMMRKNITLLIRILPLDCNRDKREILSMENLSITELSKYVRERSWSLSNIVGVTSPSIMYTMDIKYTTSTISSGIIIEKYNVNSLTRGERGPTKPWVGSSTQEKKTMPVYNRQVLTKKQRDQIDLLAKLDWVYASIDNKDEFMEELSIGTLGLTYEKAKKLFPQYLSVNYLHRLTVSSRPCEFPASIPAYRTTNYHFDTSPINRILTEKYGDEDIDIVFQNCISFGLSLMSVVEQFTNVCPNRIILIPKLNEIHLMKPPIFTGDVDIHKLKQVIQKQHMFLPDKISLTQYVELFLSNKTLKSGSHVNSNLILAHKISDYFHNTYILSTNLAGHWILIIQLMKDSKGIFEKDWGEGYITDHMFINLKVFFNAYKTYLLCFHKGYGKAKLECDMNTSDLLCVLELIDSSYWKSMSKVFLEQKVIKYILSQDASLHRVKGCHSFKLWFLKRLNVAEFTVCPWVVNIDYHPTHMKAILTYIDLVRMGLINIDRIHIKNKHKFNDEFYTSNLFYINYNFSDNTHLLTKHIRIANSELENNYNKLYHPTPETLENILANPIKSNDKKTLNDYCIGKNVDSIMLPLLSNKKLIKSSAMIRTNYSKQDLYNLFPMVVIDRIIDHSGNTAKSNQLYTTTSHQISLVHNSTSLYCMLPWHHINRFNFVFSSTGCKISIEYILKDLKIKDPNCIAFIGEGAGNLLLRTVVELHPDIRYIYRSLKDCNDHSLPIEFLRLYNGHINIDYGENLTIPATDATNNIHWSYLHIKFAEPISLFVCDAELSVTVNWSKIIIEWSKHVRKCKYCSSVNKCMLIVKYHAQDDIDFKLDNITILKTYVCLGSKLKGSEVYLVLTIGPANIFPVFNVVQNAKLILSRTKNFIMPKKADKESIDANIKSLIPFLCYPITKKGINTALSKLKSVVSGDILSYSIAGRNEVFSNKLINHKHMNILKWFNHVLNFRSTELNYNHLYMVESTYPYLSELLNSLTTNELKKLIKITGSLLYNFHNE
recombinant RSV complex, sequence (P03421 whole entry, further chain): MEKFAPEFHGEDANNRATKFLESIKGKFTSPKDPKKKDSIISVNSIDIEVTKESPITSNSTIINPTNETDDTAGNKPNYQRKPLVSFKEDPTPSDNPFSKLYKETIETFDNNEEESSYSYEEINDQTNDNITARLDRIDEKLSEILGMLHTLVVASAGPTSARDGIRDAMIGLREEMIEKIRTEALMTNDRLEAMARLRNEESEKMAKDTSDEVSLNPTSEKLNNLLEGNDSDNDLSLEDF

Row | Compound | IC50 [2] [µM] | CC50 at 5 days [3] [µM] | other results
1 | COc1cc(C(=O)NCC(O)(c2cc(CCCN)cc(-c3ccc(F)c(Cl)c3)n2)C(F)(F)F)ccc1OC1CC1 (stereo not shown) [Compound 591] | < 1 | – | EC50 [1, 4]: < 1 µM
2 | CC(C)(N)c1cc(-c2ccc(F)c(Cl)c2)nc(C(O)(CNC(=O)c2cnc(Cl)s2)C(F)(F)F)c1 (stereo not shown) [Compound 276] | < 1 | – | EC50 [1, 4]: 1 to 50 µM
3 | COc1cc(C(=O)NCC(O)(c2cc3c(c(-c4ccc(F)cc4)n2)OCC32CCCN2)C(F)(F)F)ccc1OCCO (stereo not shown) [Compound 652] | < 1 | – | –
4 | COc1cc(C(=O)NCC(O)(c2cc3c(c(-c4ccc(C(N)=O)cc4)n2)OCC3(C)N)C(F)(F)F)ccc1OCCO (stereo not shown) [Compound 674] | – | > 100 | –
5 | COc1cc(C(=O)NCC(O)(c2cc3c(c(-c4ccnc(C)c4)n2)OCC3(C)N)C(F)(F)F)ccc1OCCO (stereo not shown) [Compound 670] | – | > 100 | –
6 | COc1cc(C(=O)NC[C@](O)(c2cc3c(c(-c4ccc(C#N)cc4)n2)OC[C@@]3(C)N)C(F)(F)F)ccc1OCCO [Compound 604c] | < 10 | 10 to 100 | –
7 | COc1cc(C(=O)NCC2(c3ccc(OC)c(-c4ccc(F)c(Cl)c4)n3)CNC(=O)O2)ccc1OCCO (stereo not shown) [Compound 180] | < 100 | > 100 | –
8 | COc1cc(C(=O)NCC(O)(c2cc(C(C)(C)N)cc(-c3ccc(F)c(Cl)c3)n2)C(F)(F)F)ccc1OCc1nnn[nH]1 (stereo not shown) [Compound 616] | < 10 | > 100 | –
9 | CC(C)(N)c1cc(-c2ccc(F)c(Cl)c2)nc(C(O)(CNC(=O)c2coc(Cl)n2)C(F)(F)F)c1 (stereo not shown) [Compound 478] | < 10 | – | EC50 [1, 4]: 1 to 50 µM
10 | COc1cc(C(=O)NCC(O)(c2cc(CCN)cc(-c3ccc(F)c(Cl)c3)n2)C(F)(F)F)ccc1OC1CC1 (stereo not shown) [Compound 522] | < 1 | – | –
11 | COc1cc(C(=O)NCC(C)(O)c2nc(-c3ccc(F)c(Cl)c3)c(C)n2C)ccc1OCCF (stereo not shown) [Compound 144] | < 100 | – | –
12 | COc1cc(C(=O)NCC(O)(c2cc(CNC(C)=O)cc(-c3ccc(F)cc3)n2)C(F)(F)F)ccc1OC1CC1 (stereo not shown) [Compound 329] | < 1 | – | –
13 | COc1cc(C(=O)NCC(C)(O)c2nc(-c3ccc(F)c(Cl)c3)ccc2F)ccc1OCC(N)=O (stereo not shown) [Compound 377] | < 10 | – | –
14 | COc1cc(C(=O)NCC(C)(O)c2ccc(OC)c(-c3ccc(F)c(Cl)c3)n2)ccc1OCCN (stereo not shown) [Compound 382] | < 100 | – | –
15 | COc1cc(C(=O)NCC(O)(c2ccc(OC)c(-c3cnc(Cl)s3)n2)C(F)(F)F)ccc1OCCO (stereo not shown) [Compound 468] | – | 10 to 100 | –
16 | COc1cc(C(=O)NCC(O)(c2ccc(OC)c(-c3ccc(F)c(Cl)c3)n2)C(F)(F)F)ccc1OC1CCN(C)C1=O (stereo not shown) [Compound 350] | < 10 | – | –
17 | COc1ccc(-c2cc(C(C)(C)N)cc(C(O)(CNC(=O)c3ccc(OCCO)c(OC)c3)C(F)(F)F)n2)cn1 (stereo not shown) [Compound 660] | < 10 | – | –
18 | COc1cc(-c2csc3c(F)cccc23)nc(C(O)CNC(=O)c2cc(OC)c(OC)cc2O)c1 (stereo not shown) [Compound 110] | – | 10 to 100 | –
19 | COc1cc(C(=O)NCC(C)(O)c2ccc(OC)c(-c3ccc(F)c(Cl)c3)n2)ccc1-c1cccnc1 (stereo not shown) [Compound 146] | < 10 | – | –
20 | COc1cc(C(=O)NCC(O)c2ccc(OC)c(-c3ccc(F)c(Cl)c3)n2)ccc1OC(F)F (stereo not shown) [Compound 153] | < 10 | – | –
21 | COc1cc(C(=O)NCC(O)(c2cc3c(c(-c4ccc(Cl)nc4)n2)OCC3(C)N)C(F)(F)F)ccc1OC1CC1 (stereo not shown) [Compound 668] | < 1 | – | –
22 | COc1cc(C(=O)NCC(O)(c2cc(C(C)(N)C(F)F)cc(-c3ccc(F)cc3)n2)C(F)(F)F)ccc1OCCO (stereo not shown) [Compound 669] | < 1 | – | –
23 | COc1cc(C(=O)NCC(O)(c2cc(C(C)(C)N)cc(-c3ccc(F)cc3)n2)C(F)(F)F)ccc1OCC(F)(F)F (stereo not shown) [Compound 573] | < 1 | – | –
24 | COc1ccc(C(O)(CNC(=O)c2ccc3ncccc3c2OC)C(F)(F)F)nc1-c1ccc(F)c(Cl)c1 (stereo not shown) [Compound 269] | – | 10 to 100 | –
25 | COc1cc(C(=O)NCC(O)(c2ccc(OC)c(-c3ccc(F)c(Cl)c3)n2)C(F)(F)F)ccc1OC1CC1 (single isomer, unassigned) [Compound 247] | < 10 | > 100 | –

Row | Compound | IC50 [2] [µM] | CC50 at 5 days [3] [µM] | other results
26 | COc1cc(C(=O)NCC(O)(c2ccc(OCCN(C)C)c(-c3ccc(F)cc3)n2)C(F)(F)F)ccc1OC1CC1 (stereo not shown) [Compound 480] | < 10 | – | –
27 | CC(C)(N)c1cc(-c2ccc(F)cc2)nc(C(O)(CNC(=O)c2cnc[nH]2)C(F)(F)F)c1 (stereo not shown) [Compound 613] | < 10 | > 100 | –
28 | CC(C)(N)c1cc(-c2ccc(F)c(Cl)c2)nc(C(O)(CNC(=O)c2ccc3c(c2)OCO3)C(F)(F)F)c1 (stereo not shown) [Compound 274] | < 1 | – | EC50 [1, 4]: < 1 µM
29 | COc1cc(C(=O)NCC(O)(c2cc(C(C)(C)N)cc(-c3ccc(C(F)(F)F)cc3)n2)C(F)(F)F)ccc1OCCO (stereo not shown) [Compound 658] | < 1 | – | –
30 | COc1cc(C(=O)NCC(C)(O)c2csc(-c3ccc(F)c(Cl)c3)n2)ccc1OCCO (stereo not shown) [Compound 441] | < 100 | > 100 | –
31 | COc1cc(C(=O)NCC(O)(c2cc(C(C)(C)N)cc(-c3ccc(C#N)cc3)n2)C(F)(F)F)ccc1OCC(N)=O (stereo not shown) [Compound 625] | < 1 | > 100 | –
32 | COc1cc(C(=O)NCC(O)(c2cc(C(C)(N)CF)cc(-c3ccc(F)cc3)n2)C(F)(F)F)ccc1OCCO (stereo not shown) [Compound 676] | < 1 | – | –
33 | COc1cc(C(=O)NCC(O)(c2ccc(OC)c(-c3ccc(F)c(Cl)c3)n2)C2CC2)ccc1OCc1ncnn1C (stereo not shown) [Compound 352] | < 10 | – | –
34 | COc1cc(C(=O)NCC(O)(c2cc3c(c(-c4ccc(F)cc4)n2)OCC3(C)N)C(F)(F)F)ccc1OCS(N)(=O)=O (stereo not shown) [Compound 648] | < 1 | – | –
35 | COc1cc(C(=O)NCC(O)(c2cc3c(c(-c4ccc(F)c(Cl)c4)n2)OCC3(C)C)C(F)(F)F)ccc1OC1CCNC1=O (stereo not shown) [Compound 203] | < 10 | – | –
36 | COc1cc(C(=O)NCC(O)(c2cc3c(c(-c4ccc(C)nc4)n2)OCC3(C)N)C(F)(F)F)ccc1OCCO (stereo not shown) [Compound 671] | – | > 100 | –
37 | CCOC(=O)COc1ccc(C(=O)NCC(O)(c2cc(C(C)(C)N)cc(-c3ccc(F)c(Cl)c3)n2)C(F)(F)F)cc1OC (stereo not shown) [Compound 617] | < 1 | 10 to 100 | –
38 | COc1cc(C(=O)NCC(O)(Cn2ccnc2)c2cc3c(c(-c4ccc(F)c(Cl)c4)n2)OCC3(C)C)ccc1OCCO (stereo not shown) [Compound 225] | < 1 | – | –
39 | COc1cc(C(=O)NCC(C)(O)c2ccc(OC)c(-c3ccc(F)c(Cl)c3)n2)ccc1N1CCCC1=O (stereo not shown) [Compound 151] | < 10 | – | –
40 | COc1cc(C(=O)NCC(O)(CN2CCCCC2)c2ccc(OC)c(-c3ccc(F)c(Cl)c3)n2)ccc1OCCO (stereo not shown) [Compound 188] | < 10 | – | –
41 | CC(C)(N)c1cc(-c2ccc(F)c(Cl)c2)nc(C(O)(CNC(=O)c2csc(Cl)n2)C(F)(F)F)c1 (stereo not shown) [Compound 280] | < 1 | – | EC50 ([1]; 120 h, read-out: 50% effective concentration (EC50), HEp-2 cells infected with RSV long strain, 5 days, CCK-8 readout): 1 to 50 µM
42 | COc1cc(C(=O)NCC(O)(c2cc(C(C)(C)N)cc(-c3ccc(F)c(Cl)c3)n2)C(F)(F)F)ccc1OCC(=O)NS(C)(=O)=O (stereo not shown) [Compound 618] | < 1 | – | –
43 | COc1cc(C(=O)NCC(C)(O)c2cccc(-c3ccc(F)c(Cl)c3)c2)ccc1OCCO (stereo not shown) [Compound 439] | < 100 | > 100 | –
44 | CC1(N)COc2c1cc(C(O)(CNC(=O)c1ccc(OC3CC3)c(CO)c1)C(F)(F)F)nc2-c1ccc(F)cc1 (stereo not shown) [Compound 481] | < 1 | – | –
45 | COc1cc(C(=O)NCC(C)(O)c2ccc(OC)c(-c3ccc(F)c(Cl)c3)n2)ccc1OCC#N (stereo not shown) [Compound 367] | < 1 | – | –
46 | CCOc1ccc(C(=O)NCC(O)c2ccc(OC)c(-c3ccc(F)c(Cl)c3)n2)cc1OC (stereo not shown) [Compound 154] | < 10 | – | –
47 | CNC(=O)COc1ccc(C(=O)NCC(O)(c2ccc(OC)c(-c3ccc(F)c(Cl)c3)n2)C(F)(F)F)cc1OC (stereo not shown) [Compound 402] | < 1 | – | –
48 | COc1cc(C(=O)NCC(O)(c2ccc(OC)c(C3COc4c(F)cccc43)n2)C2CC2)ccc1OCCO (stereo not shown) [Compound 427] | < 100 | > 100 | –
49 | COc1cc(C(=O)NCC(O)(c2cc(C(C)(C)NC(=O)OCc3ccccc3)cc(-c3ccc(F)c(Cl)c3)n2)C(F)(F)F)ccc1OC1CC1 (stereo not shown) [Compound 399] | < 1 | – | –
